In publication PMC7582905, “Effect of Disulfide Cyclization of Ultrashort Cationic Lipopeptides on Antimicrobial Activity and Cytotoxicity” (International Journal of Molecular Sciences, 2020):

Key:
[1] = tested on: Candida albicans ATCC 10231; assay: Transmission electron microscopy (TEM); assay type: cell-based; details: 2 × MIC, 5.0 × 10^6 CFU/mL, 1 h at room temperature
Description: TEM was used to examine ultrastructural changes in the Candida albicans ATCC 10231 cells treated with selected lipopeptides (L2, C2, L4, C4) and melittin (positive control). Fungal cells (Candida albicans ATCC 10231) were incubated in RMPI-1640 overnight. The cells were centrifuged (3500 rpm, 7 min) and resuspended in fresh RMPI-1640 medium to obtain dense cell suspension (5.0 × 10^6 CFU/mL). The high cell-density culture was prepared to facilitate TEM observations. Peptides’ concentrations were 2 × MIC. Samples were incubated for 1 h at room temperature. Importantly, MIC of selected peptides (L2, C2, L4, C4, and melittin) were also determined with dense inoculum of yeasts (5.0 × 10^6 CFU/mL). After the treatment, the fungal cells were centrifuged (3500× rpm, 10 min) and washed twice with PBS. Fungal cells were fixed with 2.5% glutaraldehyde buffered at pH 6.5 with 0.1 M sodium cacodylate (Polysciences, Warrington, PA, USA) for 6 h at room temperature. Postfixation was performed with a 1% osmium tetroxide (Polysciences, Warrington, PA, USA) solution for 2 h at 4 °C. The cells were then centrifuged and resuspended in 0.1 M cacodylate buffer (pH 6.5). After re-centrifugation, cells were dehydrated with ethanol. Yeasts were embedded in Epon 812 resin (Sigma-Aldrich) at room temperature. An ultramicrotome Leica UC7 was used to prepare ultrathin sections (55 nm). […]

C. albicans (ATCC 10231) = details: ref [5] Makovitzki et al.; cited from earlier work
From the text: When a peptide is cyclic its antifungal activity is usually remarkably higher than that of the antibacterial activity as compared that of the linear parent molecules. The differences in antifungal and antibacterial (Gram-negative) activities between the cyclic and linear lipopeptides are statistically significant (p < 0.05). Makovitzki et al. have reported a high antimicrobial activity of C16-KKkK-NH2 (originally written as C16-KKKK-NH2; k/K—D-enantiomer) against P. aeruginosa, E. coli, and S. aureus (3–6.25 μM; approx. 2.3–4.8 μg/mL) being similar to that of lipopeptide 3. However, different ...

Molecule	ultrastructural changes in TEM micrographs [1]	MIC C. albicans (ATCC 10231) (C. albicans (ATCC 10231))
CC[C@H](C)[C@H](NC(=O)CN)C(=O)NCC(=O)N[C@@H](C)C(=O)N[C@H](C(=O)N[C@@H](CC(C)C)C(=O)N[C@@H](CCCCN)C(=O)N[C@H](C(=O)N[C@@H](CC(C)C)C(=O)N[C@H](C(=O)N[C@H](C(=O)NCC(=O)N[C@@H](CC(C)C)C(=O)N1CCC[C@H]1C(=O)N[C@@H](C)C(=O)N[C@@H](CC(C)C)C(=O)N[C@H](C(=O)N[C@@H](CO)C(=O)N[C@@H](Cc1c[nH]c2ccccc12)C(=O)N[C@H](C(=O)N[C@@H](CCCCN)C(=O)N[C@@H](CCCNC(=N)N)C(=O)N[C@@H](CCCCN)C(=O)N[C@@H](CCCNC(=N)N)C(=O)N[C@@H](CCC(N)=O)C(=O)N[C@@H](CCC(N)=O)C(N)=O)[C@@H](C)CC)[C@@H](C)CC)[C@@H](C)O)[C@@H](C)O)C(C)C)C(C)C [melittin, Melittin, reference compound]	numerous vesicles are visible inside and outside the cell	–
C16-KKkK-NH2	–	25 µM
